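Each compound was tested at five concentrations against cells in 96-well plates for 48 hours. Abbreviation: GI50, concentration required for 50% inhibition of growth.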 Calls of active or inactive are those of the source. Cut-off read from the data, not from the text of the source: active = GI50 up to about 1.1 µM and inactive = higher. Bounds are passed on as bounds.

Among the test systems are HOP-62; CAKI-1; SR; HOP-92; ACHN; NCI-H522; OVCAR-3; SW-620; SF-539; SK-MEL-28; HCT-15; OVCAR-4; KM12; M14; Malme-3M; IGROV-1; NCI-H226.
What all share (test): NCI anticancer screen, dose series, 48 h

For `CCCCCCCCCCCCCC(=O)OCC1OC(n2cc(F)c(=O)[nH]c2=O)C(N)C(OC(=O)CCCCCCCCCCCCC)C1O` (stereo not given), the GI50 in the assay on HOP-62, with CAKI-1, in the assay on SR, in the assay on HOP-92, in the assay on ACHN and in the assay on NCI-H522 was > 100 µM (inactive) in each case. The GI50 in the assay with OVCAR-3 was > 100 µM (inactive); in the assay on SW-620 it was > 100 µM (inactive); in the assay with SF-539, 42.7 µM (inactive); with SK-MEL-28, > 100 µM (inactive); in the assay on HCT-15 it was over 100 µM; with OVCAR-4 it was > 100 µM (inactive). In addition, the GI50 in the assay on KM12, in the assay with M14 and with Malme-3M was > 100 µM (inactive) in each case.
With `COc1ccc(C(=O)C#Cc2cnc(O)nc2O)cc1`, the GI50 in the assay with IGROV-1 was > 42.2 µM (inactive); in the assay with HOP-62, 19.7 µM (inactive); in the assay with CAKI-1 it was 9.64 µM (inactive); in the assay on SR it was 2.76 µM (inactive); in the assay on HOP-92, 21.4 µM (inactive); in the assay on ACHN, 14.8 µM (inactive). Also, the GI50 with NCI-H522 was 3.12 µM (inactive); in the assay with OVCAR-3 it was 9.1 µM (inactive); in the assay with SW-620 it was 5.69 µM (inactive); in the assay with SF-539, 7.33 µM (inactive); in the assay with NCI-H226, 18.7 µM (inactive); in the assay with SK-MEL-28, 14 µM (inactive). The GI50 was 7.83 µM in the assay on HCT-15; 16.8 µM (inactive) with OVCAR-4; 18.7 µM (inactive) with KM12; 5.85 µM (inactive) in the assay with M14; 5.08 µM (inactive) in the assay on Malme-3M.
In the case of `Oc1ccccc1-c1cnnc(-c2ccccc2O)c1`, the GI50 in the assay on CAKI-1 was 28.6 µM (inactive); in the assay with SR, 19 µM (inactive); in the assay with HOP-92, 24 µM (inactive); with ACHN, 27.7 µM (inactive); with NCI-H522, 17.7 µM (inactive); in the assay on OVCAR-3, 19 µM (inactive). Moreover, the GI50 with SW-620 was 37.7 µM (inactive); in the assay on SF-539 it was 33.9 µM (inactive); in the assay on NCI-H226, 42 µM (inactive); in the assay with SK-MEL-28 it was 35.6 µM (inactive); in the assay on OVCAR-4, 29.9 µM (inactive); with M14, 22.2 µM (inactive). The GI50 with Malme-3M is 33.6 µM (inactive).
Consider `COc1ccc([C@@H]2CC(=O)NCCCCNCCCN2)cc1`, for which the GI50 in the assay with IGROV-1, in the assay with HOP-62, with CAKI-1, in the assay on SR, in the assay on HOP-92 and in the assay on ACHN was > 100 µM (inactive) in each case. The GI50 in the assay on NCI-H522 was > 100 µM (inactive); in the assay on SW-620 it was > 100 µM (inactive); in the assay on SF-539, > 100 µM (inactive); in the assay with NCI-H226 it was > 100 µM (inactive); in the assay on SK-MEL-28, > 100 µM (inactive); in the assay on HCT-15, over 100 µM. The GI50 in the assay with OVCAR-4, in the assay with KM12, in the assay with M14 and with Malme-3M was > 100 µM (inactive) throughout.
With `CC(C)(CN1CCCCC1)C(=O)/C=C/c1ccc(Br)cc1`, the GI50 with IGROV-1 is 2.79 µM (inactive); with HOP-62, 3.85 µM (inactive); with CAKI-1 it was 0.887 µM (active); with SR, 2.45 µM (inactive); in the assay on HOP-92, 0.875 µM (active); in the assay with ACHN it was 3.4 µM (inactive). Also, the GI50 with NCI-H522 was 1.82 µM (inactive); in the assay with OVCAR-3 it was 2.07 µM (inactive); in the assay with SW-620 it was 2.56 µM (inactive); with SF-539, 2.09 µM (inactive); in the assay on NCI-H226, 5.78 µM (inactive); in the assay on SK-MEL-28 it was 3.99 µM (inactive). Further, the GI50 in the assay with OVCAR-4 was 4.31 µM (inactive); with KM12, 3 µM (inactive); with M14 it was 2.29 µM (inactive); with Malme-3M, 5.74 µM (inactive).
For the compound `Cc1nc2sccn2c1C(=O)N/N=C1\SCC(=O)N1C`, the GI50 in the assay on IGROV-1, in the assay with HOP-62, in the assay on CAKI-1, with SR, in the assay with HOP-92 and in the assay on ACHN was > 100 µM (inactive) throughout. Also, the GI50 in the assay with NCI-H522, with OVCAR-3, in the assay with SW-620, in the assay with SF-539, in the assay with NCI-H226 and in the assay on SK-MEL-28 was > 100 µM (inactive) throughout. Moreover, the GI50 in the assay on HCT-15 is over 100 µM; with KM12, > 100 µM (inactive); in the assay on Malme-3M, > 100 µM (inactive).
Consider `CC1=NN(C(=O)CC(=O)N(C(=O)c2ccccc2Cl)c2ccc(C)cc2)C(=O)C1/N=N/c1ccc([N+](=O)[O-])cc1` (stereo not given), for which the GI50 in the assay on IGROV-1 was 56.2 µM (inactive); with HOP-62 it was 53.5 µM (inactive); in the assay on CAKI-1, > 100 µM (inactive); in the assay with SR, > 100 µM (inactive); in the assay with HOP-92 it was 36.6 µM (inactive); in the assay with ACHN it was > 53.7 µM (inactive). For the same compound, the GI50 was > 100 µM (inactive) with NCI-H522; > 64.7 µM (inactive) with OVCAR-3; > 39.2 µM (inactive) in the assay with SW-620; 23.7 µM (inactive) with SF-539; > 76 µM (inactive) with NCI-H226; > 100 µM (inactive) in the assay with SK-MEL-28. For the same compound, the GI50 is over 43.8 µM with HCT-15; 67.9 µM (inactive) with OVCAR-4; > 65.5 µM (inactive) in the assay on KM12; > 96.2 µM (inactive) in the assay on M14; > 100 µM (inactive) with Malme-3M.
Consider `O=C(/C=C/c1ccccc1Cl)c1cccc2ccccc12`, for which the GI50 in the assay on IGROV-1 was 15.3 µM (inactive); in the assay with HOP-62, 14.3 µM (inactive); in the assay on CAKI-1 it was 12.5 µM (inactive); in the assay with SR it was 2.52 µM (inactive); with HOP-92, 20.3 µM (inactive); with ACHN, 16.7 µM (inactive). The GI50 in the assay on NCI-H522 was 6.65 µM (inactive); in the assay with OVCAR-3, 4.4 µM (inactive); in the assay with SW-620, 1.88 µM (inactive); with SF-539, 10.8 µM (inactive); with NCI-H226 it was 27.7 µM (inactive); in the assay with SK-MEL-28 it was 13.7 µM (inactive). In addition, the GI50 in the assay on HCT-15 is 3.75 µM; with OVCAR-4 it was 4.81 µM (inactive); in the assay on KM12 it was 5.24 µM (inactive); with M14, 16.3 µM (inactive); in the assay on Malme-3M, 16.1 µM (inactive).
`CC[C@@]1(O)C(=O)OCc2c1cc1n(c2=O)Cc2cc3c(OC)cccc3nc2-1`: the GI50 is 0.1 µM (active) in the assay with SR; 0.0432 µM (active) in the assay with HOP-92; 0.145 µM (active) in the assay with NCI-H522; 0.521 µM (active) in the assay with OVCAR-3; 0.196 µM (active) in the assay with SW-620; < 0.1 µM (active) in the assay with SF-539. Moreover, the GI50 in the assay on NCI-H226 is 0.267 µM (active); in the assay with HCT-15 it was 0.805 µM; in the assay on OVCAR-4, 1.06 µM (active); in the assay with KM12, 0.867 µM (active); in the assay with M14, 0.2 µM (active); with Malme-3M, 0.348 µM (active).
Turning to `COc1ccc(C(=O)C2=NON3OC23C(=O)c2ccc(OC)cc2)cc1` (stereo not given), the GI50 with IGROV-1 is 11.6 µM (inactive); with HOP-62 it was > 100 µM (inactive); in the assay with CAKI-1, 2.81 µM (inactive); with SR, 2.56 µM (inactive); with HOP-92, 2.59 µM (inactive); in the assay on ACHN it was 17.5 µM (inactive). Besides, the GI50 is 1.82 µM (inactive) with NCI-H522; 9.59 µM (inactive) with OVCAR-3; 3.31 µM (inactive) in the assay with SW-620; 10.3 µM (inactive) with SF-539; 16.8 µM (inactive) with NCI-H226; 17.9 µM (inactive) in the assay on SK-MEL-28. Further, the GI50 was 15.5 µM in the assay with HCT-15; 5.74 µM (inactive) with OVCAR-4; 19.2 µM (inactive) in the assay on KM12; 15.4 µM (inactive) in the assay on M14; 12.9 µM (inactive) with Malme-3M.
With `COC(=O)[C@@H](C)[C@H]1CC[C@@](C)(CCC2=C(C)CC3C=C(C)CCC3C2(C)C)OO1` (stereo not given in full), the GI50 was 1.42 µM (inactive) with IGROV-1; 2.06 µM (inactive) in the assay on HOP-62; 1.34 µM (inactive) with CAKI-1; 1.57 µM (inactive) with SR; 1.53 µM (inactive) in the assay on ACHN; 0.167 µM (active) in the assay with NCI-H522. Also, the GI50 with OVCAR-3 is 1.92 µM (inactive); in the assay with SW-620, 0.277 µM (active); in the assay on SF-539 it was 1.82 µM (inactive); with NCI-H226, 2.04 µM (inactive); in the assay on SK-MEL-28, 1.65 µM (inactive); in the assay with HCT-15, 1.31 µM. Moreover, the GI50 is 1.52 µM (inactive) in the assay with OVCAR-4, 1.42 µM (inactive) in the assay with KM12, 1.73 µM (inactive) in the assay with M14 and 1.91 µM (inactive) in the assay on Malme-3M.
On to `CN(C)CCC(=O)/C=C\c1ccccc1`, for which the GI50 in the assay with IGROV-1 was 24.5 µM (inactive); in the assay on HOP-62 it was 67.3 µM (inactive); in the assay on CAKI-1 it was 18.3 µM (inactive); with SR, 15 µM (inactive); in the assay with HOP-92 it was 16.6 µM (inactive); in the assay with ACHN it was 18.2 µM (inactive). The GI50 in the assay on NCI-H522 was 18.9 µM (inactive); in the assay on OVCAR-3 it was 18.2 µM (inactive); in the assay on SW-620, 18.5 µM (inactive); in the assay on SF-539, 16.8 µM (inactive); in the assay on NCI-H226, 23 µM (inactive); in the assay with SK-MEL-28, 16.9 µM (inactive). The GI50 in the assay with HCT-15 was 16.1 µM; in the assay with OVCAR-4, 19.1 µM (inactive); in the assay with KM12, 15 µM (inactive); in the assay on M14 it was 16.7 µM (inactive); in the assay on Malme-3M, 17.1 µM (inactive).
Turning to `COc1ccc(NC(=O)/C(Cc2nc3ccccc3nc2O)=N\O)c(OC)c1`, the GI50 in the assay with IGROV-1, in the assay on HOP-62, in the assay with CAKI-1, with SR, in the assay with HOP-92 and in the assay on ACHN was > 100 µM (inactive) throughout. For the same compound, the GI50 in the assay with NCI-H522, in the assay with OVCAR-3, in the assay on SW-620, in the assay on SF-539, with NCI-H226 and with SK-MEL-28 was > 100 µM (inactive) in each case. For the same compound, the GI50 in the assay with HCT-15 was over 100 µM; in the assay with OVCAR-4, > 100 µM (inactive); with KM12, > 100 µM (inactive); in the assay on M14, > 100 µM (inactive); in the assay with Malme-3M, > 100 µM (inactive).

For the origin of these results see ChEMBL document CHEMBL1201862, “PubChem BioAssay data set” (2004).
